Here are results for four compounds from PMC10407933, “Four of a Kind: A Complete Collection of ADP-Ribosylated Histidine Isosteres Using Cu(I)- and Ru(II)-Catalyzed Click Chemistry” (The Journal of Organic Chemistry, 2023).

Read-outs that look alike come from different tables or passages of the source. Starred links: 1 amine or outer side, 2 acyl side, 3 side chain; linkers in the order of their positions; H or OH if unused. Non-standard residues stand in square brackets, D forms with d. Residues, ends and D or L forms follow the SMILES beside them. X2 = Nc1ncnc2c1ncn2[C@@H]1O[C@H](COP(=O)(O)OP(=O)(O)OC[C@H]2O[C@@H](n3nncc3C[C@H](N[*:1])C(=O)[*:2])[C@H](O)[C@@H]2O)[C@@H](O)[C@H]1O; X1 = Nc1ncnc2c1ncn2[C@@H]1O[C@H](COP(=O)(O)OP(=O)(O)OC[C@H]2O[C@H](n3nncc3C[C@H](N[*:1])C(=O)[*:2])[C@H](O)[C@@H]2O)[C@@H](O)[C@H]1O

For series [1] the following is noted: 0.1 M NaOH; for additional peaks of identical mass (isomerization) after NaOH treatment: LC-MS. The procedure: With all four ADPr-His* conjugates available, we next evaluated their stability under various conditions in a liquid-chromatography mass-spectrometry (LC-MS) based assay. The conditions surveyed (NH2OH, TFA, and NaOH) were selected because of their frequent occurrence in ADP-ribosylome-focused proteomics studies.
(§1) Samples were extracted at different time points (2, 4, 8, 24, 48, and 169 h) and quenched with TFA prior to LC-MS injection. Peptide degradation was quantified by analyzing the UV-trace (260 nm) using Xcalibur software. […] Enzymatic turnover of the various peptides was assessed by monitoring AMP release directly (NudT16) or converting released ADPr via NudT5 to AMP. AMP was measured using the AMP-Glo assay (Promega). Samples are background corrected and normalized to NudT16 activity.
Figure S3. UV-trace (260 nm) of the obtained LC-MS spectra after treating β-configured 1,5-disubstituted triazole 24 with 0.1 M NaOH at various time points.
(1 picture or pasted object on this page, not shown here)
Figure S6. UV-trace (260 nm) of the obtained LC-MS spectra after treating α-configured 1,5-disubstituted triazole 29 with 0.1 M NaOH at various time points.

A further series concerns the target ARH3 (Homo sapiens, UniProt Q9NX46). The conditions noted are these: 10 μM peptide, 0.5 μM hydrolase, 30 C, AMP-Glo luminescence, normalized to NudT16; for ARH3-mediated hydrolysis of the N-glycosidic linkage: 60 min, 50 mM TrisHCl pH 8, 200 mM NaCl, 10 mM MgCl2, 1 mM DTT, 0.2 μM human NUDT5. As to the method:
as §1

Setting [2] is: 0 h, quenched with TFA, LC-MS UV-trace 260 nm.
The mark [3] stands for this setting: 2 h, quenched with TFA, LC-MS UV-trace 260 nm.
Setting [4] is: 4 h, quenched with TFA, LC-MS UV-trace 260 nm.
[5] abbreviates: 48 h, quenched with TFA, LC-MS UV-trace 260 nm.
Where [6] appears, read: 169 h, quenched with TFA, LC-MS UV-trace 260 nm.
Setting [7] is: 8 h, quenched with TFA, LC-MS UV-trace 260 nm.
The mark [8] stands for this setting: 24 h, quenched with TFA, LC-MS UV-trace 260 nm.

Chain of ARH3 (Q9NX46 whole entry): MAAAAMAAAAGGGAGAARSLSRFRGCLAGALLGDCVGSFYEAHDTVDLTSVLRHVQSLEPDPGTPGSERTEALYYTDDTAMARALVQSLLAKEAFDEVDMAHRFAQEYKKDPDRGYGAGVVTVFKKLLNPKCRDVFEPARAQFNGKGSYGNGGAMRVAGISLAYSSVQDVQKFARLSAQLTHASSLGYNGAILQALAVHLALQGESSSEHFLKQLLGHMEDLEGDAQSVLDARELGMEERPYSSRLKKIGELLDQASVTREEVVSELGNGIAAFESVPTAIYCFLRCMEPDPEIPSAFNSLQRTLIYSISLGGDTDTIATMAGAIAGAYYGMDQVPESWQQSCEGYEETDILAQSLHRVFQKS

For the compound `CC(C)C[C@H](NC(=O)CNC(=O)[C@H](C)NC(=O)CNC(=O)[C@H](Cc1cn([C@@H]2O[C@H](COP(=O)(O)OP(=O)(O)OC[C@H]3O[C@@H](n4cnc5c(N)ncnc54)[C@H](O)[C@@H]3O)[C@@H](O)[C@H]2O)nn1)NC(=O)[C@H](Cc1ccccc1)NC(=O)[C@@H](N)[C@@H](C)O)C(=O)N[C@H](C(=O)N[C@H](C(=O)N1CCC[C@H]1C(=O)N[C@H](C(=O)N[C@@H](CC(=O)O)C(=O)N[C@@H](CCCCN)C(=O)O)C(C)C)C(C)C)C(C)C` [compound 23], the “additional peaks of identical mass (isomerization) after NaOH treatment” value in series [1] (24 h) was 5%. The “ARH3-mediated hydrolysis of the N-glycosidic linkage” value (“ARH3-mediated hydrolysis” for short) at ARH3 is “unaffected”.
For the compound `CC(C)C[C@H](NC(=O)CNC(=O)[C@H](C)NC(=O)CNC(=O)[C@H](Cc1cnnn1[C@@H]1O[C@H](COP(=O)(O)OP(=O)(O)OC[C@H]2O[C@@H](n3cnc4c(N)ncnc43)[C@H](O)[C@@H]2O)[C@@H](O)[C@H]1O)NC(=O)[C@H](Cc1ccccc1)NC(=O)[C@@H](N)[C@@H](C)O)C(=O)N[C@H](C(=O)N[C@H](C(=O)N1CCC[C@H]1C(=O)N[C@H](C(=O)N[C@@H](CC(=O)O)C(=O)N[C@@H](CCCCN)C(=O)O)C(C)C)C(C)C)C(C)C` [compound 24] (H-TF[X2]GAGLVVPVDK-OH), the “Accumulated isomers (%)” value is recorded as 0% in series [1] (setting [2]); 39% in series [1] (setting [3]); 48% in series [1] (setting [4]); 71% in series [1] (setting [5]); 71% in series [1] (setting [6]). For the same compound, the results for the “Intact peptide (%)” value in series [1] (setting [3]), in series [1] (setting [5]) and in series [1] (setting [6]) were 61%, 29% and 29%, respectively. Moreover, in series [1] (after 12 h, time course, quenched with TFA, LC-MS UV-trace 260 nm), the “original peptide present after NaOH treatment” value stood at 38%. At ARH3, the “ARH3-mediated hydrolysis” value is reported as “unaffected”.
With `CC(C)C[C@H](NC(=O)CNC(=O)[C@H](C)NC(=O)CNC(=O)[C@H](Cc1cn([C@H]2O[C@H](COP(=O)(O)OP(=O)(O)OC[C@H]3O[C@@H](n4cnc5c(N)ncnc54)[C@H](O)[C@@H]3O)[C@@H](O)[C@H]2O)nn1)NC(=O)[C@H](Cc1ccccc1)NC(=O)[C@@H](N)[C@@H](C)O)C(=O)N[C@H](C(=O)N[C@H](C(=O)N1CCC[C@H]1C(=O)N[C@H](C(=O)N[C@@H](CC(=O)O)C(=O)N[C@@H](CCCCN)C(=O)O)C(C)C)C(C)C)C(C)C` [compound 28], the “additional peaks of identical mass (isomerization) after NaOH treatment” value in series [1] (24 h) is 12%. The “ARH3-mediated hydrolysis” value on ARH3 is on record as “very weakly”.
As for `CC(C)C[C@H](NC(=O)CNC(=O)[C@H](C)NC(=O)CNC(=O)[C@H](Cc1cnnn1[C@H]1O[C@H](COP(=O)(O)OP(=O)(O)OC[C@H]2O[C@@H](n3cnc4c(N)ncnc43)[C@H](O)[C@@H]2O)[C@@H](O)[C@H]1O)NC(=O)[C@H](Cc1ccccc1)NC(=O)[C@@H](N)[C@@H](C)O)C(=O)N[C@H](C(=O)N[C@H](C(=O)N1CCC[C@H]1C(=O)N[C@H](C(=O)N[C@@H](CC(=O)O)C(=O)N[C@@H](CCCCN)C(=O)O)C(C)C)C(C)C)C(C)C` [compound 29] (H-TF[X1]GAGLVVPVDK-OH), the “Accumulated isomers (%)” value in series [1] (setting [2]) is reported as 0%; in series [1] (setting [3]) it was 26%; in series [1] (setting [4]), 40%; in series [1] (setting [7]) it was 51%; in series [1] (setting [8]) it was 61%; in series [1] (setting [5]) it was 62%. Also, the “Accumulated isomers (%)” value in series [1] (setting [6]) was found to be 62%. Besides, the “Intact peptide (%)” value in series [1] (setting [2]) was determined as 100%; in series [1] (setting [3]), 74%; in series [1] (setting [4]) it was 60%; in series [1] (setting [7]), 49%; in series [1] (setting [8]) it was 39%; in series [1] (setting [5]), 38%. The “Intact peptide (%)” value in series [1] (setting [6]) came to 38%. The “ARH3-mediated hydrolysis” value on ARH3 was “capable of hydrolyzing”. On ARH3 (within the 1 h reaction, pH 8), the “conversion by ARH3” value is reported as ~50%.
